# Measurements published in ChEMBL document CHEMBL4402575.
# Target: Transthyretin (Homo sapiens) (UniProt P02766)
# Experiment: Stabilization of wild type human transthyretin expressed in Escherichia coli BL21(DE3) Star assessed as fibril formation at 50 uM pre-incubated with transthyretin before amyloid beta (1 to 42) addition by ThT fluorescence assay
row,Activity [%],Compound
1,24,O=C(O)c1ccc2nc(-c3cc(Cl)cc(Cl)c3)oc2c1
2,26,O=C(O)c1cc(-c2ccc(F)cc2F)ccc1O
